Data as given in patent US20260327211A1, “MODULATORS OF A POTASSIUM CHANNEL AND OF TRPV1 CHANNEL AND USES THEREOF” (Bsense Bio Therapeutics Ltd., priority 2023, published 2026).

Tests used:
hERG = hERG (Homo sapiens, UniProt Q12809); experiment: Functional selectivity panel, hERG; type: biochemical; parameters: Eurofins DiscoverX functional panel cells; conditions: up to 10 micromolar
Protocol: (§1) A broad panel of 78 recombinant targets was tested for pharmacologic activity in vitro through a variety of functional assays (Eurofins DiscoverX, USA), as part of the National Institute of Neurological Disorders and Stroke (NINDS) Preclinical Screening Platform for Pain (PSPP) program. The biological targets for the in vitro profiling have been selected based on avoiding opioid receptor stimulation and targets known to be associated with adverse events or targeted by drugs of abuse. […] For each test, a reference compound was evaluated at the target of interest as a positive control.

In vitro micronucleus = type: cell-based; conditions: hamster, cho-k1 cells, read-out: Cytotoxicity (%) Absolute EC50
Nav1.5 = biological target: T1, Nav1.5 (Homo sapiens, UniProt Q14524); experiment: Functional selectivity panel, Nav1.5; type: biochemical; conditions: up to 10 micromolar
T1 construct: Eurofins DiscoverX functional panel cells
T1 sequence (Q14524 whole entry): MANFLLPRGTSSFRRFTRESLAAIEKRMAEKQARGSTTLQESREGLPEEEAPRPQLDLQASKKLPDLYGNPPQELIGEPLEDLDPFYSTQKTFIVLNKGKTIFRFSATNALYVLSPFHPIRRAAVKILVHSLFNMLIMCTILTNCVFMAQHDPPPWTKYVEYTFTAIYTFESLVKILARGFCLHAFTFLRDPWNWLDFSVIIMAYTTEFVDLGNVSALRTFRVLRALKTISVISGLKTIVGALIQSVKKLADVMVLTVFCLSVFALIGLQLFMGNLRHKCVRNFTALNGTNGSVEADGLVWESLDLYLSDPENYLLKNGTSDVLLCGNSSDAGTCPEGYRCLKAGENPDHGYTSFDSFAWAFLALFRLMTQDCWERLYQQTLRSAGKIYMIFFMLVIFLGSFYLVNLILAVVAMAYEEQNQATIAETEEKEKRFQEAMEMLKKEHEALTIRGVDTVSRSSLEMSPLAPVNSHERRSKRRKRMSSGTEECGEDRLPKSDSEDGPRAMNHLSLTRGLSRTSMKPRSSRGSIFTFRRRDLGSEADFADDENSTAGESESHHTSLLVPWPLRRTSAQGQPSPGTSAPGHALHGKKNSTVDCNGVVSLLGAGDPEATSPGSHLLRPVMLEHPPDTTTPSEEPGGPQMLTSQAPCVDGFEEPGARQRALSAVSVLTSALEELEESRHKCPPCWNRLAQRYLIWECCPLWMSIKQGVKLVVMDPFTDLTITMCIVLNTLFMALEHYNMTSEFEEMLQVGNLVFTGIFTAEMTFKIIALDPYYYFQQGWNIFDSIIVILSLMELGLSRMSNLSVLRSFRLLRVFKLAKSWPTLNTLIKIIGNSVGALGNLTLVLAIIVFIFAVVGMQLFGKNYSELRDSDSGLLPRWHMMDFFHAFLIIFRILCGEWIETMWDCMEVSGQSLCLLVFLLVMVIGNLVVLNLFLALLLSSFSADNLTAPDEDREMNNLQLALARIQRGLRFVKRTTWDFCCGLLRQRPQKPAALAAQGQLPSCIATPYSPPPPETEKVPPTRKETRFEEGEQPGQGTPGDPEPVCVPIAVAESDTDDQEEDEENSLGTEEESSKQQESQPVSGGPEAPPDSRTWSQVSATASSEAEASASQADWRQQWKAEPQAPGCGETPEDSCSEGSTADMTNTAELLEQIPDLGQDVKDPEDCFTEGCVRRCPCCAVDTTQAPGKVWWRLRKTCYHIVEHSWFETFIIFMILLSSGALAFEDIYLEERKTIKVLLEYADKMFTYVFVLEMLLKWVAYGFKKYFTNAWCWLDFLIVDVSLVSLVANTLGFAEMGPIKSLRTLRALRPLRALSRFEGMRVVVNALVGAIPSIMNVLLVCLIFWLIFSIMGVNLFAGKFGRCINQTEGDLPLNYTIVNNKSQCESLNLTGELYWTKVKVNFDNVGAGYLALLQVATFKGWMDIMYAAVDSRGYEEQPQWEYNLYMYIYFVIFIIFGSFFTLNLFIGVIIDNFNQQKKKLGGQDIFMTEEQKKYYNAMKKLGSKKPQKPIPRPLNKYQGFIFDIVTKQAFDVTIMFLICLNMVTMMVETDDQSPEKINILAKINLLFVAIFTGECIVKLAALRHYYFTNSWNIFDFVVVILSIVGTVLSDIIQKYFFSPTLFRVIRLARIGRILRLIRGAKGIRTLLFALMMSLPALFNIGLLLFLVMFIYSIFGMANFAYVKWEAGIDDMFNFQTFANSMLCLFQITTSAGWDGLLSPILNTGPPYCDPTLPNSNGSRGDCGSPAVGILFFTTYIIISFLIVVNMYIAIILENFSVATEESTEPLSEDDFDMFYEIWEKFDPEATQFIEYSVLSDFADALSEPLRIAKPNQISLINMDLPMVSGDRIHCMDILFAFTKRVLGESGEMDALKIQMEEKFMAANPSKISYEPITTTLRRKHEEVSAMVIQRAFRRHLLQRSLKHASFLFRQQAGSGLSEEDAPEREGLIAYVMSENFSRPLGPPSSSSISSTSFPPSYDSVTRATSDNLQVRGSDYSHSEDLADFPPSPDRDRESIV
Protocol: as §1

MATE2-K = experiment: Transporter substrate, MATE2-K; type: in vitro ADME; conditions: role: substrate
Protocol: Additionally, compound 760 was tested for its capability to act as a transporter substrate for various transporters, and was not found to be a transporter substrate for any of the tested transporters.

[1] = system: Chronic Post-Ischemia Pain (CPIP) rats; experiment: Chronic Post-Ischemia Pain (CPIP) model, von Frey; type: in vivo, rat; conditions: 100 mg/kg oral, 6 hours post-dose
Protocol: (§2) All animal experiments were carried out according to the Guide for the Care and Use of Laboratory Animals (2011 edition) and approved by the Israel National Institutional Animal Care and Use Committee (IACUC). Young adult male SD rats (Envigo RMS, Israel), were used for in vivo efficacy: Spared Nerve Injury (SNI), Distal Tibial Injury (DTI) and Post-operative Pain (POP), 200-220 grams, Chronic Post-Ischemia Pain (CPIP) 275-325 grams, Monosodium iodoacetate-induced osteoarthritis (MIA-OA) 180-220 grams; for in vivo safety: 200-250 grams at study initiation. […] The health status of the animals used in this study was examined upon their arrival. Only animals in good health were acclimatized to laboratory conditions and were used in the studies. All studies were performed following at least five days of animal acclimation. During acclimation and throughout the entire study duration, animals were housed within a limited-access rodent facility and kept in groups with a maximum of 2-3 rats per polypropylene cage. The cages were fitted with solid bottoms and filled with sterile wood shavings as bedding material. […] Water was monitored periodically. […]
On study day 14, the animal's response to von Frey filaments was measured. […]

[2] = system: Post-operative Pain (POP) rats; experiment: Post-operative Pain model, thermal; type: in vivo, rat; conditions: 100 mg/kg, 6 hours post-dose
Protocol: as §2, with “acclimation.” for “acclimation. During acclimation and throughout the entire study duration, animals were housed within a limited-access rodent facility and kept in groups with a maximum of 2-3 rats per polypropylene cage. The cages were fitted with solid bottoms and filled with sterile wood shavings as bedding material.”
Post-operative Pain (POP): For this model, animals were anesthetized by medetomidine/ketamine sodium IP. […] On the following day, animal responses to von Frey (VF) filaments and hot-plate testing were recorded.
Hot Plate: Animals were placed on hot plate analgesia meter (IITC Life Science Inc., CA, USA) set to 53±1° C., and the time until the first escape response was observed was recorded. […]

[3] = system: Distal Tibial Injury (DTI) rats; experiment: Distal Tibial Injury (DTI) model, von Frey; type: in vivo, rat; conditions: 100 mg/kg oral, 6 hours post-dose
Protocol: as §2, with “material. Animals were provided ad libitum with a commercial, sterile rodent diet and had free access to drinking water that was supplied to each cage via polyethylene bottles with stainless steel sipper tubes.” for “material.”

Chain of hERG (Q12809 whole entry): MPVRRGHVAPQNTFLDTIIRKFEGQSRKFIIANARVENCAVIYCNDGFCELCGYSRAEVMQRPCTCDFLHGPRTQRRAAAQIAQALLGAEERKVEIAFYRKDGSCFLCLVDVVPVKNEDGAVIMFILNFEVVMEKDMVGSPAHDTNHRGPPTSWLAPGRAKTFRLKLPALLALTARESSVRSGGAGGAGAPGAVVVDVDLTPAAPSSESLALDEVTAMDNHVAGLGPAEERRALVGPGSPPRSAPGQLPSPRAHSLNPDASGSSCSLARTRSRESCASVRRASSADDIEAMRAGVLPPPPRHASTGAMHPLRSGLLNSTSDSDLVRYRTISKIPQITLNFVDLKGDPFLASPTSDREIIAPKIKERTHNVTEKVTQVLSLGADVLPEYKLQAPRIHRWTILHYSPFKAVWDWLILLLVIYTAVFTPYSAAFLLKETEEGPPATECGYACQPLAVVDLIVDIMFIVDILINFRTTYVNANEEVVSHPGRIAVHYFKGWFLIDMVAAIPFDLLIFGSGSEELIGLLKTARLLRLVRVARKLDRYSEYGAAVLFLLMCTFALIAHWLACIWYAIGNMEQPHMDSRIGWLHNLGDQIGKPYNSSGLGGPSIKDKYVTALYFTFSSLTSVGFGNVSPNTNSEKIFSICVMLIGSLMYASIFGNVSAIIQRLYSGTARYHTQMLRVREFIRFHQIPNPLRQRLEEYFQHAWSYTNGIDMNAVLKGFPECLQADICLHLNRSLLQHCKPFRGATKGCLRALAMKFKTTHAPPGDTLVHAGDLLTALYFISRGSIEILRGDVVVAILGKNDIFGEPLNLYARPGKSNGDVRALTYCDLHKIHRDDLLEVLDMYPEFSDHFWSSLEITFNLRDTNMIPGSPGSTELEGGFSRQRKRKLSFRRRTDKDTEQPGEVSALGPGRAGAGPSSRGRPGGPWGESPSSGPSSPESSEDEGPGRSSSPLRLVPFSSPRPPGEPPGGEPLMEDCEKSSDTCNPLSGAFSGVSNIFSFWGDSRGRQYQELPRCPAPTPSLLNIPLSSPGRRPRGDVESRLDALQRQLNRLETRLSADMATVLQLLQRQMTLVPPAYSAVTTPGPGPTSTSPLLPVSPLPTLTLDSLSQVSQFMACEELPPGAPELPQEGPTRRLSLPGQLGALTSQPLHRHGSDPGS

| Compound | Effect on hERG (hERG) | CC50 at 3 h (In vitro micronucleus; Plate 2 without S9, 3 hours) | CC50 at 24 h (In vitro micronucleus; Plate 3 without S9, 24 hours) | Effect on Nav1.5 (Nav1.5) | MATE2-K substrate (MATE2-K) | Reversal of mechanical PWT [1] | Thermal withdrawal latency [2] | Reversal of mechanical PWT [3] |
| --- | --- | --- | --- | --- | --- | --- | --- | --- |
| O=C(Cc1nccc(-n2cc(Cl)c3cc(Cl)cc(Cl)c32)n1)NC1COCC1O (centres unmarked) [Compound 760] | no effect | > 200 µM | 81.2 µM | no effect | not a transporter substrate |  |  |  |
| O=C(Cc1cncc(-n2cc(Cl)c3cc(Cl)cc(Cl)c32)c1)N[C@@H]1COC[C@H]1O [Compound 661] |  |  |  |  |  | 27.6% | completely reversed | 45.9% |
